In the NIST ThermoML archive (doi:10.1021/je060271a):
“And” between values parts separate entries of the source, which are not always exact repeats. Identical values can stand only once.

Settings: Liquid, Vibrating tube method

CCCCC(=O)OCC(COC(=O)CCCC)(COC(=O)CCCC)COC(=O)CCCC [pentaerythritol tetrapentanoate]
Settings | mass density
343.15 K, 33864 kPa | 1002.5 kg/m3
343.15 K, 33916 kPa | 1002.5 kg/m3
343.15 K, 33961 kPa | 1002.5 kg/m3
343.15 K, 34007 kPa | 1002.5 kg/m3
343.15 K, 34062 kPa | 1002.6 kg/m3
343.15 K, 34111 kPa | 1002.5 kg/m3
343.15 K, 34161 kPa | 1002.6 kg/m3
343.15 K, 34218 kPa | 1002.7 kg/m3
343.15 K, 34251 kPa | 1002.6 kg/m3
343.15 K, 34275 kPa | 1002.8 kg/m3
343.15 K, 34304 kPa | 1002.7 kg/m3
343.15 K, 34328 kPa | 1002.8 kg/m3
343.15 K, 34353 kPa | 1002.7 kg/m3
343.15 K, 34384 kPa | 1002.7 kg/m3
343.15 K, 34410 kPa | 1002.8 kg/m3
343.15 K, 34438 kPa | 1002.7 kg/m3
343.15 K, 34472 kPa | 1002.8 kg/m3
343.15 K, 34497 kPa | 1002.9 kg/m3
343.15 K, 34503 kPa | 1002.9 kg/m3
343.15 K, 34504 kPa | 1002.8 kg/m3
343.15 K, 34505 kPa | 1002.9 kg/m3
343.15 K, 34506 kPa | 1002.8 kg/m3
343.15 K, 34508 kPa | 1002.8 kg/m3
343.15 K, 34509 kPa | 1002.8 kg/m3
343.15 K, 34510 kPa | 1002.9 kg/m3 and 1002.8 kg/m3
343.15 K, 34512 kPa | 1002.8 kg/m3
343.15 K, 34514 kPa | 1002.8 kg/m3
343.16 K, 412.1 kPa | 978.6 kg/m3
343.16 K, 441.3 kPa | 978.8 kg/m3
343.16 K, 470.3 kPa | 978.8 kg/m3
343.16 K, 495.2 kPa | 978.9 kg/m3
343.16 K, 522.1 kPa | 978.8 kg/m3
343.16 K, 556.2 kPa | 979 kg/m3
343.16 K, 586.3 kPa | 978.8 kg/m3
343.16 K, 617.4 kPa | 979 kg/m3
343.16 K, 654 kPa | 979 kg/m3
343.16 K, 685.5 kPa | 979 kg/m3
343.16 K, 717.1 kPa | 979 kg/m3
343.16 K, 781.4 kPa | 979 kg/m3
343.16 K, 807.8 kPa | 979.1 kg/m3
343.16 K, 835.6 kPa | 979.2 kg/m3
343.16 K, 864.6 kPa | 979.2 kg/m3
343.16 K, 901.1 kPa | 979.2 kg/m3
343.16 K, 933.9 kPa | 979.2 kg/m3
343.16 K, 969.2 kPa | 979.2 kg/m3
343.16 K, 1013.1 kPa | 979.1 kg/m3
343.16 K, 1049.6 kPa | 979.2 kg/m3
343.16 K, 1077.9 kPa | 979.4 kg/m3
343.16 K, 1107.4 kPa | 979.3 kg/m3
343.16 K, 1133.1 kPa | 979.3 kg/m3
343.16 K, 1159.9 kPa | 979.4 kg/m3
343.16 K, 1187.6 kPa | 979.4 kg/m3
343.16 K, 1223.2 kPa | 979.4 kg/m3
343.16 K, 1254.5 kPa | 979.4 kg/m3
343.16 K, 1286.1 kPa | 979.4 kg/m3
343.16 K, 1325.9 kPa | 979.4 kg/m3
343.16 K, 1361.3 kPa | 979.5 kg/m3
343.16 K, 1398.1 kPa | 979.6 kg/m3
343.16 K, 1437 kPa | 979.8 kg/m3
343.16 K, 1485.1 kPa | 979.6 kg/m3
343.16 K, 1528.1 kPa | 979.7 kg/m3
343.16 K, 1574.3 kPa | 979.7 kg/m3
343.16 K, 1633.5 kPa | 979.6 kg/m3
343.16 K, 2223.1 kPa | 980.2 kg/m3
343.16 K, 2283.6 kPa | 980.2 kg/m3
343.16 K, 2321.1 kPa | 980.2 kg/m3
343.16 K, 2385.5 kPa | 980.4 kg/m3
343.16 K, 2425 kPa | 980.4 kg/m3
343.16 K, 2459.5 kPa | 980.4 kg/m3
343.16 K, 2536.9 kPa | 980.4 kg/m3
343.16 K, 2611.6 kPa | 980.6 kg/m3
343.16 K, 2873.3 kPa | 980.7 kg/m3
343.16 K, 2917.7 kPa | 980.7 kg/m3
343.16 K, 3019.5 kPa | 980.9 kg/m3
343.16 K, 3175.8 kPa | 980.9 kg/m3
343.16 K, 3224.4 kPa | 981.1 kg/m3
343.16 K, 3294.8 kPa | 981.1 kg/m3
343.16 K, 3352.1 kPa | 981.2 kg/m3
343.16 K, 3426.6 kPa | 981.2 kg/m3
343.16 K, 3497.5 kPa | 981.3 kg/m3
343.16 K, 3535.3 kPa | 981.2 kg/m3
343.16 K, 3629.9 kPa | 981.3 kg/m3
343.16 K, 3647.8 kPa | 981.5 kg/m3
343.16 K, 3662.8 kPa | 981.3 kg/m3
343.16 K, 3677.4 kPa | 981.3 kg/m3
343.16 K, 3695.4 kPa | 981.4 kg/m3
343.16 K, 3713.8 kPa | 981.4 kg/m3
343.16 K, 3733.2 kPa | 981.4 kg/m3
343.16 K, 3754.8 kPa | 981.5 kg/m3
343.16 K, 3785.2 kPa | 981.5 kg/m3
343.16 K, 3811.5 kPa | 981.5 kg/m3
343.16 K, 3838.2 kPa | 981.6 kg/m3
343.16 K, 3865.5 kPa | 981.5 kg/m3
343.16 K, 5098.9 kPa | 982.6 kg/m3
343.16 K, 5142.8 kPa | 982.5 kg/m3
343.16 K, 5167.8 kPa | 982.6 kg/m3
343.16 K, 5186.3 kPa | 982.5 kg/m3
343.16 K, 5201 kPa | 982.6 kg/m3
343.16 K, 5210.3 kPa | 982.5 kg/m3
343.16 K, 5224.5 kPa | 982.5 kg/m3
343.16 K, 5255.1 kPa | 982.6 kg/m3
343.16 K, 5300.5 kPa | 982.6 kg/m3
343.16 K, 5325.2 kPa | 982.7 kg/m3
343.16 K, 5345.4 kPa | 982.7 kg/m3
343.16 K, 5483.5 kPa | 982.9 kg/m3
343.16 K, 5624.6 kPa | 983 kg/m3
343.16 K, 5676.1 kPa | 983 kg/m3
343.16 K, 5700.4 kPa | 982.9 kg/m3
343.16 K, 5724.9 kPa | 982.9 kg/m3
343.16 K, 5754 kPa | 983 kg/m3
343.16 K, 5779.4 kPa | 983.1 kg/m3
343.16 K, 5804.5 kPa | 983.1 kg/m3
343.16 K, 5829.4 kPa | 982.9 kg/m3
343.16 K, 5859.3 kPa | 983 kg/m3
343.16 K, 5884.9 kPa | 983.1 kg/m3
343.16 K, 5910.4 kPa | 983.1 kg/m3
343.16 K, 5937.2 kPa | 983 kg/m3
343.16 K, 5968 kPa | 983.3 kg/m3
343.16 K, 5994 kPa | 983.1 kg/m3
343.16 K, 6020.7 kPa | 983.2 kg/m3
343.16 K, 6053.2 kPa | 983.2 kg/m3
343.16 K, 6080.4 kPa | 983.2 kg/m3
343.16 K, 6108.6 kPa | 983.3 kg/m3
343.16 K, 6137.6 kPa | 983.3 kg/m3
343.16 K, 6165.8 kPa | 983.2 kg/m3
343.16 K, 6199.5 kPa | 983.3 kg/m3
343.16 K, 6228 kPa | 983.4 kg/m3
343.16 K, 6262.9 kPa | 983.4 kg/m3
343.16 K, 6292.8 kPa | 983.4 kg/m3
343.16 K, 6323.1 kPa | 983.4 kg/m3
343.16 K, 6352.3 kPa | 983.4 kg/m3
343.16 K, 6382.9 kPa | 983.5 kg/m3
343.16 K, 6408.4 kPa | 983.5 kg/m3
343.16 K, 6433.7 kPa | 983.5 kg/m3
343.16 K, 6459.6 kPa | 983.5 kg/m3
343.16 K, 6491.2 kPa | 983.7 kg/m3
343.16 K, 6518.6 kPa | 983.6 kg/m3
343.16 K, 6545.1 kPa | 983.6 kg/m3
343.16 K, 6572.4 kPa | 983.7 kg/m3
343.16 K, 6599.5 kPa | 983.7 kg/m3
343.16 K, 6632.2 kPa | 983.7 kg/m3
343.16 K, 6659.3 kPa | 983.6 kg/m3
343.16 K, 6686.8 kPa | 983.6 kg/m3
343.16 K, 6719.6 kPa | 983.7 kg/m3
343.16 K, 6747.4 kPa | 983.8 kg/m3
343.16 K, 6804.2 kPa | 983.8 kg/m3
343.16 K, 6838.6 kPa | 983.8 kg/m3
343.16 K, 6899.2 kPa | 983.8 kg/m3
343.16 K, 6929.1 kPa | 983.9 kg/m3
343.16 K, 6959.5 kPa | 983.9 kg/m3
343.16 K, 6989.5 kPa | 984 kg/m3
343.16 K, 7026.2 kPa | 983.9 kg/m3
343.16 K, 7056.7 kPa | 984 kg/m3
343.16 K, 7088 kPa | 984.1 kg/m3
343.16 K, 7120.1 kPa | 984.1 kg/m3
343.16 K, 7261.4 kPa | 984.1 kg/m3
343.16 K, 7294.7 kPa | 984.3 kg/m3
343.16 K, 7328.4 kPa | 984.1 kg/m3
343.16 K, 7396.9 kPa | 984.2 kg/m3
343.16 K, 7437.8 kPa | 984.2 kg/m3
343.16 K, 7472.9 kPa | 984.3 kg/m3
